pIC50: −log10 of the molar value. Values joined by “and” are separate entries in the source; they are usually repeats but may differ in a detail not shown here. Identical values can stand only once. Counter-ions that a name gives are not always drawn.
Assays:
Cdc7/Dbf4 = Cdc7/Dbf4 (Homo sapiens, UniProt O00311); test: Inhibition assay of Cdc7/Dbf4 activity (Dowex resin capture, MCM2 substrate); type: biochemical; conditions: Cdc7/Dbf4, MCM2 substrate 6 μM, ATP 2 μM
Description: The inhibiting activity of putative Cdc7 inhibitors and the potency of selected compounds is determined through a method of assay based on the use of Dowex resin capture technology. The assay consists of the transfer of radioactivity labeled phosphate moiety by the kinase to an acceptor substrate. The resulting 33P-labeled product is separated from unreacted tracer, transferred into a scintillation cocktail and light emitted is measured in a scintillation counter.
The inhibition assay of Cdc7/Dbf4 activity is performed according to the following protocol. The MCM2 substrate is trans-phosphorylated by the Cdc7/Dbf4 complex in the presence of ATP traced with γ^33-ATP. The reaction is stopped by addition of Dowex resin in the presence of formic acid. Dowex resin particles capture unreacted γ^33-ATP and drag it to the bottom of the well while ^33P phosphorylated MCM2 substrate remains in solution. The supernatant is collected, transferred into Optiplate plates and the extent of substrate phosphorylation is evaluated by β counting.
The inhibition assay of Cdc7/Dbf4 activity was performed in 96 wells plate according to the following protocol.
The solvent for test compounds contained 3% DMSO. (final concentration 1%) • 10 μl substrate MCM2 (6 μM final concentration), a mixture of cold ATP (2 μM final concentration) and radioactive ATP (1/5000 molar ratio with cold ATP). • 10 μl enzyme (Cdc7/Dbf4, 2 nM final concentration) that started the reaction. The buffer of the reaction consisted in 50 mM HEPES pH 7.9 containing 15 mM MgCl2, 2 mM DTT, 3 μM NaVO3, 2 mM glycerophosphate and 0.2 mg/ml BSA.
After incubation for 60 minutes at room temperature, the reaction was stopped by adding to each well 150 μl of Dowex resin in the presence of 150 mM formic acid. After another 60 min incubation, 50 μL of suspension were withdrawn and transferred into 96-well OPTIPLATEs containing 150 μl of MicroScint 40 (Packard); after 5-10 minutes shaking the plates were read for 1 min in a Packard TOP-Count radioactivity reader.
Experimental data were analyzed by the computer program Assay Explorer using the four parameter logistic equation: y=bottom+(top−bottom)/(1+10^((log IC50−x)*slope)) where x is the logarithm of the inhibitor concentration, y is the response; y starts at bottom and goes to top with a sigmoid shape.

cdk2/Cyclin A = cdk2/Cyclin A (Homo sapiens, UniProt P24941); test: Inhibition assay of cdk2/Cyclin A activity (SPA); type: biochemical; conditions: Cyclin A/CDK2 complex, histone H1 substrate, 10 μM ATP
Description: The inhibiting activity of putative cdk/cyclin inhibitors and the potency of selected compounds may be determined through a method of assay based on the use of the SPA technology (Amersham Pharmacia Biotech).
The assay consists of the transfer of radioactivity labelled phosphate moiety by the kinase to a biotinylated substrate. The resulting 33P-labelled biotinylated product is allowed to bind to streptavidin-coated SPA beads (biotin capacity 130 pmol/mg), and light emitted was measured in a scintillation counter.
Kinase reaction: 4 μM in house biotinylated histone H1 (Sigma #H-5505) substrate, 10 μM ATP (0.1 microCi P^33γ-ATP), 1.1 nM Cyclin A/CDK2 complex, inhibitor in a final volume of 30 μl buffer (TRIS HCl 10 mM pH 7.5, MgCl2 10 mM, DTT 7.5 mM+0.2 mg/ml BSA) were added to each well of a 96 U bottom. After incubation for 60 min at room temperature, the reaction was stopped by addition of 100 μl PBS buffer containing 32 mM EDTA, 500 μM cold ATP, 0.1% Triton X100 and 10 mg/ml streptavidin coated SPA beads. After 20 min incubation, 110 μL of suspension were withdrawn and transferred into 96-well OPTIPLATEs containing 100 μl of 5M CsCl. After 4 hours, the plates were read for 2 min in a Packard TOP-Count radioactivity reader.
IC50 determination: inhibitors were tested at different concentrations ranging from 0.0015 to 10 μM. […]

Sequence of Cdc7/Dbf4 (O00311 whole entry): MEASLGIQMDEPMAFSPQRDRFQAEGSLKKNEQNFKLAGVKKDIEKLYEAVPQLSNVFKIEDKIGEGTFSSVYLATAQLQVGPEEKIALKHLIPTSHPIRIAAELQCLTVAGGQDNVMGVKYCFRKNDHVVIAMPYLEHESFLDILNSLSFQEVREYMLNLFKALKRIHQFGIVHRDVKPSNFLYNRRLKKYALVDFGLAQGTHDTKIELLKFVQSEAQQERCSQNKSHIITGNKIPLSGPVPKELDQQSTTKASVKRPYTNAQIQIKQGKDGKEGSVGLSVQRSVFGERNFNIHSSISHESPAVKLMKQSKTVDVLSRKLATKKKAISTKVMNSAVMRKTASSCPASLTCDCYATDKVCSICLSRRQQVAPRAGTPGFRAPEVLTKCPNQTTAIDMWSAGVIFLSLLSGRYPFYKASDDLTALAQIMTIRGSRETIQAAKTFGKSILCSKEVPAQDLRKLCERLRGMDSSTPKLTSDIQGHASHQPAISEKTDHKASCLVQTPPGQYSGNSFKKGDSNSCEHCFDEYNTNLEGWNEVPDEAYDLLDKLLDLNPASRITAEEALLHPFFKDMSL
Sequence of Cdc7/Dbf4 (Q9UBU7 whole entry partner): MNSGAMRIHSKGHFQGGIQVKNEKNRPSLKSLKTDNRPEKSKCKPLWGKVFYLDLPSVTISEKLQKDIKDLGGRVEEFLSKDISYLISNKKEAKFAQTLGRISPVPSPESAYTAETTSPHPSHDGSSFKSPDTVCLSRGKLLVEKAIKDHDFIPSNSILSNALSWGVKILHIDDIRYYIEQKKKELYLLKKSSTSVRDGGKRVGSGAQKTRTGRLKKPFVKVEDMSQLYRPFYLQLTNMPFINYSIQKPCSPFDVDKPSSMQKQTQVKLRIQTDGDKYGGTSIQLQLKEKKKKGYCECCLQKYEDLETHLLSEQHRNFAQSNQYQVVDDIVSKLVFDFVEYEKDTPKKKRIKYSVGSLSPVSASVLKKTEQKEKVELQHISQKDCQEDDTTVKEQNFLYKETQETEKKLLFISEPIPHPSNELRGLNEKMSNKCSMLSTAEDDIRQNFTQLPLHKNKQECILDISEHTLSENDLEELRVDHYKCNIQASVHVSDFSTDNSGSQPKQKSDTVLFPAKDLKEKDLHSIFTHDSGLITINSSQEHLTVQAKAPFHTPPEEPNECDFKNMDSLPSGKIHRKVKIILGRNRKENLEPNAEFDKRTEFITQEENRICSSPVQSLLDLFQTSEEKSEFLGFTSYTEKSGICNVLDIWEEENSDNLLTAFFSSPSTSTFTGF

pIC50 (Cdc7/Dbf4) | pIC50 (cdk2/Cyclin A) | Compound
7.70 and 8.05 |  | O=C1NC(Cc2ccccc2)Cc2[nH]c(-c3ccncc3)cc21 (single isomer, unassigned) [(6R or 6S)-6-benzyl-2-pyridin-4-yl-1,5,6,7-tetrahydro-4H-pyrrolo[3,2-c]pyridin-4-one]
8.40 and 8.15 |  | CC1CNC(=O)c2cc(-c3ccncc3)[nH]c21 (single isomer, unassigned) [(7R or 7S)-7-methyl-2-pyridin-4-yl-1,5,6,7-tetrahydro-4H-pyrrolo[3,2-c]pyridin-4-one]
7.80 |  | O=C1NCCc2[nH]c(-c3ccnc4[nH]ccc34)cc21 [2-(1H-pyrrolo[2,3-b]pyridin-4-yl)-1,5,6,7-tetrahydro-4H-pyrrolo[3,2-c]pyridin-4-one hydrochloride]
8.10 |  | O=C1NCCc2[nH]c(-c3ccncc3F)cc21 [2-(3-fluoropyridin-4-yl)-1,5,6,7-tetrahydro-4H-pyrrolo[3,2-c]pyridin-4-one hydrochloride]
 | 7.40 | O=C1NCCc2[nH]c(-c3ccnc(NC4CCCC4)c3)cc21 [2-[2-(cyclopentylamino)pyridin-4-yl]-1,5,6,7-tetrahydro-4H-pyrrolo[3,2-c]pyridin-4-one]
8.70 |  | O=C1NCC2(CC2)c2[nH]c(-c3ccncc3)cc21 [2′-pyridin-4-yl-5′,6′-dihydrospiro[cyclopropane-1,7′-pyrrolo[3,2-c]pyridin]-4′(1′H)-one]
8.52 |  | Cc1c(-c2ccncc2)[nH]c2c1C(=O)NCC2 [3-methyl-2-pyridin-4-yl-1,5,6,7-tetrahydro-4H-pyrrolo[3,2-c]pyridin-4-one hydrochloride]
8.15 |  | CCC1(CC)CNC(=O)c2cc(-c3ccncc3)[nH]c21 [7,7-diethyl-2-pyridin-4-yl-1,5,6,7-tetrahydro-4H-pyrrolo[3,2-c]pyridin-4-one hydrochloride]
8.52 |  | CC1(C)CNC(=O)c2cc(-c3ccncc3)[nH]c21 [7,7-dimethyl-2-pyridin-4-yl-1,5,6,7-tetrahydro-4H-pyrrolo[3,2-c]pyridin-4-one hydrochloride]
7.59 |  | O=C1NC(CCc2ccccc2)Cc2[nH]c(-c3ccncc3)cc21 [(6R,6S)-6-(2-phenylethyl)-2-pyridin-4-yl-1,5,6,7-tetrahydro-4H-pyrrolo[3,2-c]pyridin-4-one hydrochloride]
7.80 |  | O=C1NC(Cc2ccccc2)Cc2[nH]c(-c3ccncc3)cc21 [(6R,6S)-6-benzyl-2-pyridin-4-yl-1,5,6,7-tetrahydro-4H-pyrrolo[3,2-c]pyridin-4-one]
8.10 |  | O=C1NC(C2CCCCC2)Cc2[nH]c(-c3ccncc3)cc21 [(6R,6S)-6-cyclohexyl-2-pyridin-4-yl-1,5,6,7-tetrahydro-4H-pyrrolo[3,2-c]pyridin-4-one]
8.70 |  | O=C1NC(C2CC2)Cc2[nH]c(-c3ccncc3)cc21 [(6R,6S)-6-cyclopropyl-2-pyridin-4-yl-1,5,6,7-tetrahydro-4H-pyrrolo[3,2-c]pyridin-4-one]
8.05 |  | CC(C)C1Cc2[nH]c(-c3ccncc3)cc2C(=O)N1 [(6R,6S)-6-isopropyl-2-pyridin-4-yl-1,5,6,7-tetrahydro-4H-pyrrolo[3,2-c]pyridin-4-one hydrochloride]
7.85 |  | C[C@H]1Cc2[nH]c(-c3ccncc3)cc2C(=O)N1 [(6S)-6-methyl-2-pyridin-4-yl-1,5,6,7-tetrahydro-4H-pyrrolo[3,2-c]pyridin-4-one]
9.00 |  | CCC1CNC(=O)c2cc(-c3ccncc3F)[nH]c21 [(7R,7S)-2-(3-fluoropyridin-4-yl)-7-ethyl-1,5,6,7-tetrahydro-4H-pyrrolo[3,2-c]pyridin-4-one]
8.40 |  | CC(C)CC1CNC(=O)c2cc(-c3ccncc3F)[nH]c21 [(7R,7S)-2-(3-fluoropyridin-4-yl)-7-isobutyl-1,5,6,7-tetrahydro-4H-pyrrolo[3,2-c]pyridin-4-one]
8.52 |  | CC(C)C1CNC(=O)c2cc(-c3ccncc3F)[nH]c21 [(7R,7S)-2-(3-fluoropyridin-4-yl)-7-isopropyl-1,5,6,7-tetrahydro-4H-pyrrolo[3,2-c]pyridin-4-one]
7.77 |  | O=C1NCC(Cc2ccccc2)c2[nH]c(-c3ccncc3)cc21 [(7R,7S)-7-benzyl-2-pyridin-4-yl-1,5,6,7-tetrahydro-4H-pyrrolo[3,2-c]pyridin-4-one]
8.30 |  | CC(C)CC1CNC(=O)c2cc(-c3ccncc3)[nH]c21 [(7R,7S)-7-isobutyl-2-pyridin-4-yl-1,5,6,7-tetrahydro-4H-pyrrolo[3,2-c]pyridin-4-one hydrochloride]
7.70 |  | CC(C)C1CNC(=O)c2cc(-c3ccncc3)[nH]c21 [(7R,7S)-7-isopropyl-2-pyridin-4-yl-1,5,6,7-tetrahydro-4H-pyrrolo[3,2-c]pyridin-4-one]
8.30 |  | CC1CNC(=O)c2cc(-c3ccncc3)[nH]c21 [(7R,7S)-7-methyl-2-pyridin-4-yl-1,5,6,7-tetrahydro-4H-pyrrolo[3,2-c]pyridin-4-one hydrochloride]
8.52 |  | CCC(C)C1CNC(=O)c2cc(-c3ccncc3)[nH]c21 [(7R,7S)-7-sec-butyl-2-pyridin-4-yl-1,5,6,7-tetrahydro-4H-pyrrolo[3,2-c]pyridin-4-one]
